In publication PMC10086185, “Synthesis, radiolabeling, and evaluation of a (4-quinolinoyl)glycyl-2-cyanopyrrolidine analogue for fibroblast activation protein (FAP) PET imaging” (Frontiers in Bioengineering and Biotechnology, 2023):
Several values for one entry are separate records, joined by “and”; a condition that tells them apart may be missing. Equal values may be shown once.

Assays:
[1] = Lipid/water partition coefficient in octanol/PBS (log D 7.4); type: physicochemical; details: pH 7.4
Description: The lipid/water partition coefficient of [^18F]3 was tested in octanol/PBS mixtures, following the published literature reports ([Li et al., 2019]) and presented as log D 7.4 values. Briefly, a small volume of [^18F]3 was added into an octanol/water mixture, and then, a series of diluted octanol/PBS mixtures was obtained, as described in the literature. The CPM in octanol and the PBS layer was obtained in a Wizard 2470 gamma counter (PerkinElmer) and was used to calculate the lipid/PBS partition coefficient. Several continuous and stable partition coefficient values were selected to calculate the log D 7.4 values.

[2] = Biodistribution in normal Kunming mice; type: in vivo; details: for Biodistribution, Intestine, single mice: individual animals; for Biodistribution, Blood / Biodistribution, Bone / Biodistribution, Brain / Biodistribution, Heart / Biodistribution, Intestine / Biodistribution, Kidney / Biodistribution, Lungs / Biodistribution, Muscle / Biodistribution, Spleen / Biodistribution, Stomach / Biodistribution, Liver: mean (SD), n = 5
Description: Normal Kunming mice (4 weeks, 20–25 g) were injected intravenously with about 740 KBq of [^18F]3 in 100 µL of PBS saline solution via the tail vein. All subjects were grouped by time points (n = 5). At designated time points, all subjects were sacrificed, and the organs and tissues were harvested, weighted, and counted in a PerkinElmer Wizard 2470 gamma counter. All the counts obtained from the gamma counter were decay-corrected and used to calculate the tissue biodistribution data, which is presented as the percentage of injected dose per gram of organ (%ID/g).

[3] = test system: A549-FAPI xenograft tumors; assay: Micro-PET/CT imaging, A549-FAPI xenograft tumors; type: in vivo, BALB/c nude mice
Description: (§1) BALB/c nude mice used in this study were obtained from the Animal Center of Sichuan University. Tumor-bearing mouse models were established by the subcutaneous injection of 100 µL of PBS suspension containing approximately 1*10^6 tumor cells to the body side of the subjects. The tumor volume was monitored every day, and the tumor-bearing mice were ready for imaging once the tumor volume reached 0.5 mm^3 (tumor volume can be calculated by this equation: Volume = 0.5 * long tail * short tail *short tail). Micro-PET/CT imaging studies were performed on the IRIS Micro-PET/CT system (Inviscan SAS, France). Tumor-bearing mice were injected with approximately 11.2–14.8 MBq of [^18F]3 (200 µL) via the tail vein under anaesthetization by isoflurane. Static PET images were obtained at designated time points and were reconstructed with a 3D-OSEM algorithm using a Monte Carlo-based accurate detector model. Then, 170 sec-CT acquisition was conducted with 50 kV, 1 mA X-ray output for attenuation correction and anatomical orientation. ROIs (regions of interest) were drawn on the lung, kidney, liver, and tumor by OsiriX software. SUV (standardized uptake value) of the ROIs was directly obtained from OsiriX for each subject according to this formula: SUV = Voxal value (Bq/mL) * Body weight (kg)/(Decay corrected Dose (Bq) * 1,000 (g/kg)).
(§2) BALB/c nude mice used in this study were obtained from the Animal Center of Sichuan university. Tumor-bearing mice model were established by the subcutaneous injection of 100 µL of PBS suspension containing approximately 1*10^6 tumor cells to the body side of the subjects. The tumor volume was monitored every day and the tumor-bearing mice were ready for imaging once the tumor volume reach 0.5 mm^3 (tumor volume can be calculated by this equation: Volume = 0.5 * long tail * short tail *short tail). Micro-PET/CT imaging studies were performed on the IRIS Micro-PET/CT system (Inviscan SAS, France). Tumor-bearing mice were injected with approximately 11.2-14.8 MBq of [^18F]3 (200 µL) via tail vein under anaesthetization by isoflurane. Static PET images were obtained at designated time points and were reconstructed with a 3D-OSEM algorithm using a Monte-Carlo based accurate detector model. A 170 sec-CT acquisition was conducted with 50 kV, 1 mA X-ray output for attenuation correction and anatomical orientation. ROIs (regions of interest) were drawn on lung, kidney, liver and tumor by Osirix software. SUV (standardized uptake value) of the ROIs was directly obtained from Osirix for each subject according to this formula: SUV = Voxal value (Bq/mL) * Body weight (kg)/(Decay corrected Dose (Bq) * 1000 (g/kg)).

[4] = Micro-PET/CT imaging, organ SUV in tumor-bearing nude mice; type: in vivo, BALB/c nude mice
Description: as §1, §2

[5] = A549-FAPI tumors, pre-injection of compound 3, 2 mg/kg

SMILES: N#C[C@@H]1CC(F)(F)CN1C(=O)CNC(=O)c1ccnc2ccc([18F])cc12 [[^18F]3]
- logD [1]: 1.11
- Biodistribution, Intestine, single mice ([2]; 5 min post-injection (time inferred from the means)): 10.34 %ID/g and 11.05 %ID/g and 10.3 %ID/g and 22.06 %ID/g and 16.22 %ID/g
- Biodistribution, Blood ([2]; 5 min post-injection): 12.96 ± 2.03 %ID/g
- Biodistribution, Bone ([2]; 5 min post-injection): 1.86 ± 0.54 %ID/g
- Biodistribution, Brain ([2]; 5 min post-injection): 0.80 ± 0.29 %ID/g
- Biodistribution, Heart ([2]; 5 min post-injection): 11.00 ± 1.64 %ID/g
- Biodistribution, Intestine ([2]; 5 min post-injection): 13.99 ± 4.60 %ID/g
- Biodistribution, Kidney ([2]; 5 min post-injection): 22.59 ± 5.74 %ID/g
- Biodistribution, Lungs ([2]; 5 min post-injection): 11.36 ± 1.89 %ID/g
- Biodistribution, Muscle ([2]; 5 min post-injection): 8.02 ± 1.34 %ID/g
- Biodistribution, Spleen ([2]; 5 min post-injection): 8.71 ± 1.50 %ID/g
- Biodistribution, Stomach ([2]; 5 min post-injection): 7.82 ± 0.86 %ID/g
- Biodistribution, Intestine, single mice ([2]; 15 min post-injection (time inferred from the means)): 27.17 %ID/g and 17.59 %ID/g and 22.86 %ID/g and 23.43 %ID/g
- Biodistribution, Blood ([2]; 15 min post-injection): 6.90 ± 1.13 %ID/g
- Biodistribution, Bone ([2]; 15 min post-injection): 1.59 ± 0.51 %ID/g
- Biodistribution, Brain ([2]; 15 min post-injection): 0.61 ± 0.25 %ID/g
- Biodistribution, Heart ([2]; 15 min post-injection): 5.71 ± 1.12 %ID/g
- Biodistribution, Intestine ([2]; 15 min post-injection): 20.10 ± 6.14 %ID/g
- Biodistribution, Kidney ([2]; 15 min post-injection): 12.72 ± 3.88 %ID/g
- Biodistribution, Liver ([2]; 15 min post-injection): 27.82 ± 6.35 %ID/g
- Biodistribution, Lungs ([2]; 15 min post-injection): 6.84 ± 1.43 %ID/g
- Biodistribution, Muscle ([2]; 15 min post-injection): 5.32 ± 1.02 %ID/g
- Biodistribution, Spleen ([2]; 15 min post-injection): 4.56 ± 1.09 %ID/g
- Biodistribution, Stomach ([2]; 15 min post-injection): 6.98 ± 1.36 %ID/g
- Biodistribution, Intestine, single mice ([2]; 30 min post-injection (time inferred from the means)): 31.76 %ID/g and 22.3 %ID/g and 32.3 %ID/g and 24.86 %ID/g and 56.33 %ID/g
- Biodistribution, Blood ([2]; 30 min post-injection): 4.35 ± 0.66 %ID/g
- Biodistribution, Bone ([2]; 30 min post-injection): 1.80 ± 0.60 %ID/g
- Biodistribution, Brain ([2]; 30 min post-injection): 0.35 ± 0.10 %ID/g
- Biodistribution, Heart ([2]; 30 min post-injection): 3.53 ± 0.33 %ID/g
- Biodistribution, Intestine ([2]; 30 min post-injection): 33.51 ± 12.05 %ID/g
- Biodistribution, Kidney ([2]; 30 min post-injection): 8.48 ± 1.34 %ID/g
- Biodistribution, Liver ([2]; 30 min post-injection): 15.34 ± 2.67 %ID/g
- Biodistribution, Lungs ([2]; 30 min post-injection): 5.15 ± 1.59 %ID/g
- Biodistribution, Spleen ([2]; 30 min post-injection): 2.95 ± 0.49 %ID/g
- Biodistribution, Stomach ([2]; 30 min post-injection): 5.50 ± 1.26 %ID/g
- Biodistribution, Intestine, single mice ([2]; 60 min post-injection (time inferred from the means)): 31 %ID/g and 24.55 %ID/g and 17.85 %ID/g and 13.74 %ID/g and 9.5 %ID/g
- Biodistribution, Blood ([2]; 60 min post-injection): 2.61 ± 0.18 %ID/g
- Biodistribution, Bone ([2]; 60 min post-injection): 1.91 ± 0.33 %ID/g
- Biodistribution, Brain ([2]; 60 min post-injection): 0.20 ± 0.04 %ID/g
- Biodistribution, Heart ([2]; 60 min post-injection): 1.91 ± 0.24 %ID/g
- Biodistribution, Intestine ([2]; 60 min post-injection): 19.33 ± 7.66 %ID/g
- Biodistribution, Kidney ([2]; 60 min post-injection): 5.07 ± 0.81 %ID/g
- Biodistribution, Liver ([2]; 60 min post-injection): 9.03 ± 3.62 %ID/g
- Biodistribution, Lungs ([2]; 60 min post-injection): 2.35 ± 1.07 %ID/g
- Biodistribution, Muscle ([2]; 60 min post-injection): 2.60 ± 1.20 %ID/g
- Biodistribution, Spleen ([2]; 60 min post-injection): 1.46 ± 0.24 %ID/g
- Biodistribution, Stomach ([2]; 60 min post-injection): 2.98 ± 1.22 %ID/g
- Biodistribution, Intestine, single mice ([2]; 90 min post-injection (time inferred from the means)): 6.25 %ID/g and 12.96 %ID/g and 10.39 %ID/g and 11.77 %ID/g and 4.91 %ID/g
- Biodistribution, Intestine, single mice ([2]; 120 min post-injection (time inferred from the means)): 6.06 %ID/g and 1.76 %ID/g and 4.52 %ID/g and 2.19 %ID/g and 9.23 %ID/g
- Biodistribution, Blood ([2]; 120 min post-injection): 1.29 ± 0.28 %ID/g
- Biodistribution, Bone ([2]; 120 min post-injection): 1.65 ± 0.81 %ID/g
- Biodistribution, Brain ([2]; 120 min post-injection): 0.08 ± 0.02 %ID/g
- Biodistribution, Heart ([2]; 120 min post-injection): 0.93 ± 0.20 %ID/g
- Biodistribution, Intestine ([2]; 120 min post-injection): 4.75 ± 2.73 %ID/g
- Biodistribution, Kidney ([2]; 120 min post-injection): 2.27 ± 0.93 %ID/g
- Biodistribution, Liver ([2]; 120 min post-injection): 5.39 ± 3.36 %ID/g
- Biodistribution, Lungs ([2]; 120 min post-injection): 1.87 ± 0.49 %ID/g
- Biodistribution, Muscle ([2]; 120 min post-injection): 1.51 ± 0.48 %ID/g
- Biodistribution, Spleen ([2]; 120 min post-injection): 0.85 ± 0.13 %ID/g
- Biodistribution, Stomach ([2]; 120 min post-injection): 1.63 ± 0.51 %ID/g
- Biodistribution, Intestine, single mice ([2]; 240 min post-injection (time inferred from the means)): 7.72 %ID/g and 2.48 %ID/g and 5.26 %ID/g and 2.09 %ID/g and 6.66 %ID/g
- Biodistribution, Blood ([2]; 240 min post-injection): 0.75 ± 0.19 %ID/g
- Biodistribution, Bone ([2]; 240 min post-injection): 1.33 ± 0.30 %ID/g
- Biodistribution, Brain ([2]; 240 min post-injection): 0.04 ± 0.02 %ID/g
- Biodistribution, Heart ([2]; 240 min post-injection): 0.39 ± 0.11 %ID/g
- Biodistribution, Intestine ([2]; 240 min post-injection): 4.84 ± 2.23 %ID/g
- Biodistribution, Kidney ([2]; 240 min post-injection): 0.82 ± 0.23 %ID/g
- Biodistribution, Liver ([2]; 240 min post-injection): 2.47 ± 1.47 %ID/g
- Biodistribution, Lungs ([2]; 240 min post-injection): 0.69 ± 0.19 %ID/g
- Biodistribution, Muscle ([2]; 240 min post-injection): 0.76 ± 0.23 %ID/g
- Biodistribution, Spleen ([2]; 240 min post-injection): 0.38 ± 0.13 %ID/g
- Biodistribution, Stomach ([2]; 240 min post-injection): 1.64 ± 0.69 %ID/g
- Activity in the bone ([2]; all time points): lower than 2 %ID/g
- Radioactivity in the brain ([2]; all time points): lower than 1 %ID/g
- Tumor-to-muscle (T/M) ratio ([3]; A549-FAPI tumors, 90 min p.i.): 4.34
- Tumor SUV, blocking group [3, 5]: lower than 0.2
- Tumor-to-muscle (T/M) ratio, blocking group [3, 5]: less than 2.0
- Tumor SUV ([3]; A549-FAPI xenografted tumors, within 90 min): greater than 0.4
- SUV in the liver ([4]; 15 min p.i.): about 5.0
- SUV in the kidney ([4]; 90 min p.i.): 3.0
- SUV in the bladder ([4]; end of the scan): greater than 8.0
- SUV in the liver ([4]; end of the scan (90 min)): 2.0
- SUV in the kidney ([4]; initial): about 5.0
- SUV in the brain ([4]; mouse, in vivo): less than 0.3
